Source: patent US20240317777A1, “NOVEL MACROCYCLIC AMINOPYRAZOLE COMPOUNDS AS CDK2 INHIBITORS” (Accutar Biotechnology Inc., priority 2023, published 2024)
Where two headings read alike, the source gives them in different places.

Experiments:
[1] = biological target: CDK1-CYCLIN B (Homo sapiens, UniProt P06493); assay: CDK protein kinase inhibition by ADP-Glo assay, CDK1-CYCLIN B; assay type: biochemical; conditions: for IC50: read-out: CDK1-CYCLINB, IC50; for CDK2 Fold selectivity against CDK1: fold selectivity for CDK2 over CDK1, recombinant CDK kinases
Experimental: (§1) CDK Protein Kinase Inhibition by ADP-Glo Assay
(§2) This ADP-Glo assay measures ADP formed from a kinase reaction and indirectly quantifies the phosphorylation of peptide substrates by the CDK/cyclin protein complexes. The typical assays were carried out in Nanosyn by combining kinase/cyclin complexes, substrates, compounds, and cofactors (ATP and Mg2+) in a well of a 384-well microtiter plate (Corning 3824) and incubating at 22° C. (Table 1). At the end of the incubation, the reaction is quenched, and conversion is detected by luminescence using the Promega ADP-Glo™ Kinase Assay kit (catalog #V9102).
(§3) Final assay buffer mixture contains: • 100 mM HEPES, pH 7.5 • 0.1% BSA • 0.01% Triton X-100 • 1 mM DTT • 5 mM MgCl2 • 10 μM Sodium Orthovanadate • 100 μM Beta-Glycerophosphate • 1000 μM Ultra Pure ATP (provided in the Promega ADP-Glo™ Kinase Assay kit) • 1% DMSO (from compound)
(§4) Upon completion, 5 μL of the ADP Glo reagent was added to each well and the plate was further incubated at room temperature for 45 minutes. 10 uL of the Kinase Detection Reagent was subsequently added to each well. After 10 minutes of incubation, the plate was read and analyzed on the BioTek Synergy microplate reader using BioTek Gen5 software.

[2] = biological target: CDK2-CYCLIN E1 (Homo sapiens, UniProt P24941); assay: CDK protein kinase inhibition by ADP-Glo assay, CDK2-CYCLIN E1; assay type: biochemical; conditions: read-out: CDK2-CYCLINE, IC50
Experimental: as §1, §2, §3, §4

[3] = biological target: CDK4-CYCLIN D1 (Homo sapiens, UniProt P11802); assay: CDK protein kinase inhibition by ADP-Glo assay, CDK4-CYCLIN D1; assay type: biochemical; conditions: for IC50: read-out: CDK4-CYCLIND1, IC50; for CDK2 Fold selectivity against CDK4: fold selectivity for CDK2 over CDK4, recombinant CDK kinases
Experimental: as §1, §2, §3, §4

[4] = biological target: CDK6-CYCLIN D3 (Homo sapiens, UniProt Q00534); assay: CDK protein kinase inhibition by ADP-Glo assay, CDK6-CYCLIN D3; assay type: biochemical; conditions: for IC50: read-out: CDK6-CYCLIND3, IC50; for CDK2 Fold selectivity against CDK6: fold selectivity for CDK2 over CDK6, recombinant CDK kinases
Experimental: as §1, §2, §3, §4

[5] = biological target: CDK9-CYCLIN T1 (Homo sapiens, UniProt P50750); assay: CDK protein kinase inhibition by ADP-Glo assay, CDK9-CYCLIN T1; assay type: biochemical; conditions: for IC50: read-out: CDK9-CYCLINT1, IC50; for CDK2 Fold selectivity against CDK9: fold selectivity for CDK2 over CDK9, recombinant CDK kinases
Experimental: as §1, §2, §3, §4

[6] = tested on: Phospho-Rb (Ser807/811) in OVCAR3 cells; assay: Phospho-Rb expression inhibition in OVCAR3 cells quantified by In Cell Western; assay type: cell-based; conditions: Homo sapiens, OVCAR-3, 24 hours, read-out: OVCAR-3 pRb IC50
Summary of the method: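 In-cell western: after 24 h compound exposure at 37° C, fixed OVCAR3 cells co-stained for pRb Ser807/811 (800 nm channel) and total Rb (680 nm channel), imaged by LI-COR Odyssey.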

[7] = tested on: CCNE1-amplified OVCAR3 cells; assay: Cell growth inhibition of CCNE1-amplified OVCAR3 cells (CellTiter-Glo); assay type: cell-based; conditions: Homo sapiens, OVCAR-3, 144 h, 6 days
Summary of the method: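 Growth read-out was CellTiter-Glo luminescence, taken after 10 min at room temperature at the end of a 6-day compound exposure at 37 °C. Compounds were diluted from DMSO stocks across various concentrations.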

[8] = tested on: CCNE1-normal SKOV3 cells; assay: Cell growth inhibition of CCNE1-normal SKOV3 cells (CellTiter-Glo); assay type: cell-based; conditions: Homo sapiens, SK-OV-3, 144 h, 6 days
Summary of the method: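 Growth was measured by CellTiter-Glo luminescence after 6 days' compound exposure at 37 °C. Cells were plated one day before dosing at 1000 per well in medium with 10% FBS, and compounds were diluted from DMSO stocks.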

[9] = Table 35, recombinant CDK kinase

CDK4-CYCLIN D1, sequence (P11802 whole entry): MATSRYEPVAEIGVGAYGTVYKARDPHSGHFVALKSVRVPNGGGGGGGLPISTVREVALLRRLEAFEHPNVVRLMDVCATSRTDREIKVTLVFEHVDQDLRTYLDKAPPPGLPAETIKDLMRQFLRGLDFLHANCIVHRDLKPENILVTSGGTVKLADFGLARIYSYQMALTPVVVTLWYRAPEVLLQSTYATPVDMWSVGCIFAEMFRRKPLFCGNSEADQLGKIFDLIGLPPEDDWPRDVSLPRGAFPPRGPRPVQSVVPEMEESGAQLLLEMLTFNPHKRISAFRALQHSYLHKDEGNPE
CDK4-CYCLIN D1, sequence (P24385 whole entry partner): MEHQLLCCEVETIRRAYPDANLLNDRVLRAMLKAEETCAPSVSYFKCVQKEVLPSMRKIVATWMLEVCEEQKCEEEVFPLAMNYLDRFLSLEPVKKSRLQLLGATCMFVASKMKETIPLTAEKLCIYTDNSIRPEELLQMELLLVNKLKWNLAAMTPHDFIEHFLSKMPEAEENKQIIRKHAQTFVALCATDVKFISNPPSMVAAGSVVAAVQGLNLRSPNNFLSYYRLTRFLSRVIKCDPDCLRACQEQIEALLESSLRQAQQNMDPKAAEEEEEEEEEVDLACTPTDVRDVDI
CDK1-CYCLIN B, sequence (P06493 whole entry): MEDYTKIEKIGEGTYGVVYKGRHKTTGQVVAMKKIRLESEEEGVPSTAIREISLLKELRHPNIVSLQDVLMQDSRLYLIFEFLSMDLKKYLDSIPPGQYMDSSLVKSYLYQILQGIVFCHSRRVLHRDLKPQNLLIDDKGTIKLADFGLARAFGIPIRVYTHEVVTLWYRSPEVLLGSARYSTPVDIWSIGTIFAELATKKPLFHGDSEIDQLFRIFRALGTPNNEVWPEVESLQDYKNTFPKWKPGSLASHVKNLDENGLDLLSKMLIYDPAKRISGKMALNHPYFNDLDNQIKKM
CDK1-CYCLIN B, sequence (P14635 whole entry partner): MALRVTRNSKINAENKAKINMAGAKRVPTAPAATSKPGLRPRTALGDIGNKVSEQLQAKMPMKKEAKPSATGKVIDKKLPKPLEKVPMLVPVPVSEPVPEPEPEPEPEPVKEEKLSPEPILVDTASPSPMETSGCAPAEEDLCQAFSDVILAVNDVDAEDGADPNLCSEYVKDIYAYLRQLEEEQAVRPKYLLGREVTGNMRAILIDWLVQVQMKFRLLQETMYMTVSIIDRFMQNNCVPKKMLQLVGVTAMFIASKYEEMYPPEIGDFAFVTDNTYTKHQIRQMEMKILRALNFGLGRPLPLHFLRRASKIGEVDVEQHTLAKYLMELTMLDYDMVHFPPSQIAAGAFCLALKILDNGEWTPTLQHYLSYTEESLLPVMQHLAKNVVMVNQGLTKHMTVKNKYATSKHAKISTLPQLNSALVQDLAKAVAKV
CDK9-CYCLIN T1, sequence (P50750 whole entry): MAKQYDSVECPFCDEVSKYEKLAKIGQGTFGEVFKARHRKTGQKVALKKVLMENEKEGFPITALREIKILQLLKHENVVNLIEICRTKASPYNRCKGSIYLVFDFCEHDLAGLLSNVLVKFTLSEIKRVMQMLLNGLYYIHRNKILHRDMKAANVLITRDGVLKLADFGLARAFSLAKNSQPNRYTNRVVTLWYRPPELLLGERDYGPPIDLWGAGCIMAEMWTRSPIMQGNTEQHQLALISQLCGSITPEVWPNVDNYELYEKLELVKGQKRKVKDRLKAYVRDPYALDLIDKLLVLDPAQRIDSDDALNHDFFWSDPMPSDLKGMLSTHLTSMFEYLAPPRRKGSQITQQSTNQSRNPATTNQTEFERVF
CDK9-CYCLIN T1, sequence (O60563 whole entry partner): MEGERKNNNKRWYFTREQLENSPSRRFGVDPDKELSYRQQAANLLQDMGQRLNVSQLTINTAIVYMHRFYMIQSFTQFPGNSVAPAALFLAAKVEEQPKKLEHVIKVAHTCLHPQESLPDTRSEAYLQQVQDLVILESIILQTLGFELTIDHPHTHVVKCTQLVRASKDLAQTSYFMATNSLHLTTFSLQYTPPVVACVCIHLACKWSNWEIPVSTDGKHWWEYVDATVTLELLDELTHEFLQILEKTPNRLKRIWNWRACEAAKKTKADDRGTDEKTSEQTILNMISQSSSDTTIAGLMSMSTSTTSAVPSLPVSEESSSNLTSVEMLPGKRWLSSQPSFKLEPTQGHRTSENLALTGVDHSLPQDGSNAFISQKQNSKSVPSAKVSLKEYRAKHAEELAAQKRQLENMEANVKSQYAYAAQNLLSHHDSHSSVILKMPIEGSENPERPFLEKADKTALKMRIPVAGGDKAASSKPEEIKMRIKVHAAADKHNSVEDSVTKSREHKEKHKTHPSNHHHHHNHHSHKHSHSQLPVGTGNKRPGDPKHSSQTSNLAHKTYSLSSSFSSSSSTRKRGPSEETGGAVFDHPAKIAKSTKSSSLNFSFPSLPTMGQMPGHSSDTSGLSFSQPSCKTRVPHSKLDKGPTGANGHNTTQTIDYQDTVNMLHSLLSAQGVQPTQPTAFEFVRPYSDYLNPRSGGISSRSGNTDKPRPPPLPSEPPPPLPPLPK
CDK6-CYCLIN D3, sequence (Q00534 whole entry): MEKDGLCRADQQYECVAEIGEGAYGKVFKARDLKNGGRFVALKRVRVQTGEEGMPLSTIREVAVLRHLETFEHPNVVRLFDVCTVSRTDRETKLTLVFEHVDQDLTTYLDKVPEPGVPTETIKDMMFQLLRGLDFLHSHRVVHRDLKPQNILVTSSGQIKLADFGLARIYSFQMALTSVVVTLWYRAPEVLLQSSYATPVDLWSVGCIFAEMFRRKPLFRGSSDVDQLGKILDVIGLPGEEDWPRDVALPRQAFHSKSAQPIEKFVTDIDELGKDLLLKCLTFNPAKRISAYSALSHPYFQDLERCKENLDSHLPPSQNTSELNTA
CDK6-CYCLIN D3, sequence (P30281 whole entry partner): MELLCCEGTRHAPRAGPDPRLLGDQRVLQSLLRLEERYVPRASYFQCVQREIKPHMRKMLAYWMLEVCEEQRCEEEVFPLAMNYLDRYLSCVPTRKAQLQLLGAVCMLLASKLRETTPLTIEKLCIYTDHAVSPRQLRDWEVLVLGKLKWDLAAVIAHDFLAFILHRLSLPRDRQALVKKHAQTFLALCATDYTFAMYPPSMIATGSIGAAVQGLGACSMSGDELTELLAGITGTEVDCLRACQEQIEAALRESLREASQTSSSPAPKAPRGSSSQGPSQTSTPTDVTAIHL

SMILES | IC50 [6] [nM] | IC50 [7] [nM] | IC50 [8] [nM] | IC50 ([1]; ADP-Glo, 1000 μM ATP, Table 21) [nM] | IC50 ([2]; ADP-Glo, 1000 μM ATP, Table 21) [nM] | IC50 ([3]; ADP-Glo, 1000 μM ATP, Table 21) [nM] | IC50 ([4]; ADP-Glo, 1000 μM ATP, Table 21) [nM] | IC50 ([5]; ADP-Glo, 1000 μM ATP, Table 21) [nM] | also measured
C[C@H]1CCCOc2cc(ccn2)Nc2cc(n[nH]2)[C@@H]2C[C@H](F)[C@@H](C2)OC(=O)N1 [Compound 225, (1^1S,1^3R,1^4S,9S,Z)-1^4-fluoro-9-methyl-2^1H-5,12-dioxa-3,10-diaza-4(4,2)-pyridina-2(3,5)-pyrazola-1(1,3)-cyclopentanacyclododecaphan-11-one] | 2 to 10 | 10 to 50 | 250 to 1250 | – | – | – | – | – | IC50 [1, 9]: ≤ 10 nM; CDK2 Fold selectivity against CDK1 ([1]; Table 36): E (E, <20); IC50 [2, 9]: ≤ 10 nM; IC50 [3, 9]: 10 to 50 nM; CDK2 Fold selectivity against CDK4 ([3]; Table 36): E (E, <20); IC50 [4, 9]: 10 to 50 nM; CDK2 Fold selectivity against CDK6 ([4]; Table 36): E (E, <20); IC50 [5, 9]: 10 to 50 nM; CDK2 Fold selectivity against CDK9 ([5]; Table 36): E (E, <20)
C[C@@H]1CC[C@H](C)Oc2cncc(c2)Nc2cc(n[nH]2)[C@H]2CC[C@H](C2)OC(=O)N1 [Compound 152, (1^1S,1^3R,6S,9R,Z)-6,9-dimethyl-2^1H-5,12-dioxa-3,10-diaza-4(3,5)-pyridina-2(3,5)-pyrazola-1(1,3)-cyclopentanacyclododecaphan-11-one] | 2 to 10 | 10 to 50 | 250 to 1250 | 10 to 50 | ≤ 10 | 50 to 100 | 50 to 100 | 100 to 500 | CDK2 Fold selectivity, CDK1 ([1]; CDK2 versus CDK1, Table 22): E (E, <20); CDK2 Fold selectivity, CDK4 ([3]; CDK2 versus CDK4, Table 22): D (D, >20 and ≤50); CDK2 Fold selectivity, CDK6 ([4]; CDK2 versus CDK6, Table 22): E (E, <20); CDK2 Fold selectivity, CDK9 ([5]; CDK2 versus CDK9, Table 22): D (D, >20 and ≤50)
C[C@H]1CC[C@H](C)Oc2cc(ccn2)Nc2cc(n[nH]2)[C@H]2CC[C@H](C2)OC(=O)N1 [compound 162] | 2 to 10 | 10 to 50 | 250 to 1250 | 10 to 50 | ≤ 10 | 100 to 500 | 100 to 500 | 100 to 500 | –
C[C@H]1CCCOc2cc(ccn2)Nc2[nH]nc(c2F)[C@H]2CC[C@H](C2)OC(=O)N1 [Compound 183, (1^1S,1^3R,9S,E)-2^4-fluoro-9-methyl-2^1H-5,12-dioxa-3,10-diaza-4(4,2)-pyridina-2(3,5)-pyrazola-1(1,3)-cyclopentanacyclododecaphan-11-one] | 10 to 50 | 50 to 250 | > 1250 | – | – | – | – | – | IC50 ([1]; ADP-Glo, 1000 μM ATP, Table 33): > 500 nM; CDK2 Fold selectivity against CDK1 ([1]; Table 34): D (D, >20 and ≤50); IC50 ([2]; ADP-Glo, 1000 μM ATP, Table 33): 10 to 50 nM; IC50 ([3]; ADP-Glo, 1000 μM ATP, Table 33): > 500 nM; CDK2 Fold selectivity against CDK4 ([3]; Table 34): C (C, >50 and ≤100); IC50 ([4]; ADP-Glo, 1000 μM ATP, Table 33): > 500 nM; CDK2 Fold selectivity against CDK6 ([4]; Table 34): C (C, >50 and ≤100); IC50 ([5]; ADP-Glo, 1000 μM ATP, Table 33): > 500 nM; CDK2 Fold selectivity against CDK9 ([5]; Table 34): B (B, >100 and ≤500)
